Laboratory results taken from ChEMBL document CHEMBL1909046, “DrugMatrix in vitro pharmacology data”.

Columns and labels:
[1] = target: T1, Polyunsaturated fatty acid lipoxygenase ALOX15 (Oryctolagus cuniculus, UniProt P12530); experiment: biochemical; assay type: tissue-based, Reticulocytes;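 also: inhibition of 15-lipoxygenase enzyme activity measured with linoleic acid as the substrate; in other assays of this panel Not Active means under 50% inhibition at 10 µM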
T1 sequence (P12530 whole entry): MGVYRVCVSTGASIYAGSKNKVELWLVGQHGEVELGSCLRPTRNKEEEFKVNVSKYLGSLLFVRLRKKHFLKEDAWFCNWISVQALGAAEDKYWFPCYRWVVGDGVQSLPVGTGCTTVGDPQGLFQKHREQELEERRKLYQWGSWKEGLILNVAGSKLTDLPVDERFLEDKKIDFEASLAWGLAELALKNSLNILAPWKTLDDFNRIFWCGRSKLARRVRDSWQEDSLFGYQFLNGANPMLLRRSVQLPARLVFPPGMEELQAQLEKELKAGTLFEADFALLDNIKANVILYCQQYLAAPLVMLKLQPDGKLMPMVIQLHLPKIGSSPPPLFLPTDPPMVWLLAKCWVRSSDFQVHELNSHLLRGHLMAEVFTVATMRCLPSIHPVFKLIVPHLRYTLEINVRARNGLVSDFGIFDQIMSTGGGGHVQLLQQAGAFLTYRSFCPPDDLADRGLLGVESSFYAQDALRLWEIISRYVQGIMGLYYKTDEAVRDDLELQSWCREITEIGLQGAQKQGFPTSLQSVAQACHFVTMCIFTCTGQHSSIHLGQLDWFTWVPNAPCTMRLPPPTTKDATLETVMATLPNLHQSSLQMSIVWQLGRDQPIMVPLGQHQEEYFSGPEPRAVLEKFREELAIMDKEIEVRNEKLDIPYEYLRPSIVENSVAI

Cytochrome P450 3A4 = Cytochrome P450 3A4 (Homo sapiens, UniProt P08684); conditions: bti-tn-5b1-4; also: in other assays of this panel Not Active means under 50% inhibition at 10 µM
[2] = DRUGMATRIX: Nicotinic Acetylcholine radioligand binding (ligand: [125I] Epibatidine); assay type: cell membranes, Membrane; conditions: imr-32; Not Active = under 50% inhibition at 10 µM
[3] = target: 5-hydroxytryptamine receptor 4 (Cavia porcellus, UniProt O70528); assay type: cell membranes, Dunkin-Hartley, Striatum, Membrane; conditions: for Ki: read-out: Ki; as to all read-outs here: in other assays of this panel Not Active means under 50% inhibition at 10 µM
Mu-type opioid receptor = Mu-type opioid receptor (Homo sapiens, UniProt P35372); experiment: DRUGMATRIX: Opiate mu (OP3, MOP) radioligand binding (ligand: [3H] Diprenorphine); assay type: cell membranes, CHO-K1, Membrane; conditions: cho-k1; Not Active = under 50% inhibition at 10 µM
[4] = target: Mitogen-activated protein kinase 14 (Homo sapiens, UniProt Q16539); set-up: species or system Escherichia coli;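 also: inhibition of p38alpha enzyme activity in a biochemical kinase assay, with myelin basic protein serving as substrate; in other assays of this panel Not Active means under 50% inhibition at 10 µM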
[5] = DRUGMATRIX: Leukotriene, BLT (LTB4) radioligand binding (ligand: [3H]LTB4); assay type: cell membranes, Membrane; conditions: u-937; Not Active = under 50% inhibition at 10 µM

Mitogen-activated protein kinase 14, sequence (Q16539 whole entry): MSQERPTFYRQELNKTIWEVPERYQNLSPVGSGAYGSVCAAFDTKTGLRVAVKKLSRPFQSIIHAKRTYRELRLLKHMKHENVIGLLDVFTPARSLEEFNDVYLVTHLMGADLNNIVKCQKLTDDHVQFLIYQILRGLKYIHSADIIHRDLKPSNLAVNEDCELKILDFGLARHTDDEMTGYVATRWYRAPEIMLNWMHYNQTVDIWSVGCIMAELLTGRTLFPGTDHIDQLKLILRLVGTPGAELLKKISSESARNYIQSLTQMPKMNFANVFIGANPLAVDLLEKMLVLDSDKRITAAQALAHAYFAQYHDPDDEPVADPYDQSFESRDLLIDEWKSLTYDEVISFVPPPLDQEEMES
5-hydroxytryptamine receptor 4, sequence (O70528 whole entry): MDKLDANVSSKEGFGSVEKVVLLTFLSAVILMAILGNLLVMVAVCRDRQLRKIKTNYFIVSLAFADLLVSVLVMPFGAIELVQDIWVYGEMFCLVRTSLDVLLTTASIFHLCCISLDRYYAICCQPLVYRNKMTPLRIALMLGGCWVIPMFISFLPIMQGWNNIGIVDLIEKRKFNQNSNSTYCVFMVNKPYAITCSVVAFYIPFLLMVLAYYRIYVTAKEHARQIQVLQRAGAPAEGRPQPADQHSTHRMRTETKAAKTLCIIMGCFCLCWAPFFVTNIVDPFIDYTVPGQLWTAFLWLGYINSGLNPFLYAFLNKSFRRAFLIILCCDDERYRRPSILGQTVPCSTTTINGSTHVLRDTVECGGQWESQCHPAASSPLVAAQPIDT
Cytochrome P450 3A4, sequence (P08684 whole entry): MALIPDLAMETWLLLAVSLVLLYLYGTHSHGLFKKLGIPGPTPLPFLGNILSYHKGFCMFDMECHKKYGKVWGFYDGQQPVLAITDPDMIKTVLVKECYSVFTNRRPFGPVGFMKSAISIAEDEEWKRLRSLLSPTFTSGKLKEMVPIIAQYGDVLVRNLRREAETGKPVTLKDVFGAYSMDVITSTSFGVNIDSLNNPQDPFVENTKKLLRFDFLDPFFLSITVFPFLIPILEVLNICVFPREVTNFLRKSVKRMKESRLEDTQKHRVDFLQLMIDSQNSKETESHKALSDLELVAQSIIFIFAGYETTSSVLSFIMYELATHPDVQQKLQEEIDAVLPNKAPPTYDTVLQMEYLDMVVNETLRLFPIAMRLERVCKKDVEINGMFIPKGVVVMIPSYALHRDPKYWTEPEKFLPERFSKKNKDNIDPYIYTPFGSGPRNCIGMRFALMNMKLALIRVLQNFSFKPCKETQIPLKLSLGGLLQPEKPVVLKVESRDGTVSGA
Mu-type opioid receptor, sequence (P35372 whole entry): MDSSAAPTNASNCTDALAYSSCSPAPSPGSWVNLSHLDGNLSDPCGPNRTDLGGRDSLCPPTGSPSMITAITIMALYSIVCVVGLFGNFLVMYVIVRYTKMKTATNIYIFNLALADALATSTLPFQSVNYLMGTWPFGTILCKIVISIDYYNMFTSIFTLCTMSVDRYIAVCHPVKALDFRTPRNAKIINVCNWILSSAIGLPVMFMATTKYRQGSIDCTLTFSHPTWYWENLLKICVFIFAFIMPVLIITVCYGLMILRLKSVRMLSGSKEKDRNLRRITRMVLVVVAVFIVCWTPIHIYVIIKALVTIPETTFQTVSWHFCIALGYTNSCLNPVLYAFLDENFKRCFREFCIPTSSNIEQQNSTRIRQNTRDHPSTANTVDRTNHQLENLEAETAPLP

Structure (SMILES) | IC50 ([1]; reticulocytes) | IC50 (Cytochrome P450 3A4) | Ki (Cytochrome P450 3A4) | IC50 [2] | Ki [2] | IC50 [3] | IC50 (Mu-type opioid receptor) | IC50 [4] | IC50 [5] | Ki [5] | IC50 ([1]; read-out: IC50) [µM] | IC50 ([3]; read-out: IC50) [µM] | Ki [3] [µM] | IC50 ([4]; read-out: IC50) [µM]
CCN1CC(CCN2CCOCC2)C(c2ccccc2)(c2ccccc2)C1=O (configuration not stated) [DOXAPRAM] | Not Active | Not Active | Not Active | Not Active | Not Active | Not Active | Not Active | Not Active | Not Active | Not Active |  |  |  | 
Cn1c(=O)c2c(ncn2CC2OCCO2)n(C)c1=O [DOXOFYLLINE] | Not Active | Not Active | Not Active | Not Active | Not Active | Not Active | Not Active | Not Active | Not Active | Not Active |  |  |  | 
COc1cccc2c1C(=O)c1c(O)c3c(c(O)c1C2=O)C[C@@](O)(C(=O)CO)C[C@@H]3O[C@H]1C[C@H](N)[C@H](O)[C@H](C)O1 [DOXORUBICIN] |  | Not Active | Not Active | Not Active | Not Active |  | Not Active | Not Active | Not Active | Not Active | 13.6 | 12.5 | 2.08 | 
COc1cccc2c1C(=O)c1c(O)c3c(c(O)c1C2=O)C[C@@](O)(C(=O)CO)C[C@@H]3O[C@H]1C[C@H](N)[C@@H](O)[C@H](C)O1 [EPIRUBICIN] | Not Active | Not Active | Not Active | Not Active | Not Active |  | Not Active | Not Active | Not Active | Not Active |  | 7.94 | 1.32 | 
C[C@]12CC[C@@H]3c4ccc(OC(=O)c5ccccc5)cc4CC[C@H]3[C@@H]1CC[C@@H]2O [ESTRADIOL BENZOATE] | Not Active | Not Active | Not Active | Not Active | Not Active | Not Active | Not Active | Not Active | Not Active | Not Active |  |  |  | 
C[C@]12CC[C@@H]3c4ccc(O)cc4CC[C@H]3[C@@H]1CC[C@@H]2O [ESTRADIOL] |  | Not Active | Not Active | Not Active | Not Active | Not Active | Not Active | Not Active | Not Active | Not Active | 11.3 |  |  | 
CC[C@@H](CO)NCCN[C@@H](CC)CO [ETHAMBUTOL] | Not Active | Not Active | Not Active | Not Active | Not Active | Not Active | Not Active | Not Active | Not Active | Not Active |  |  |  | 
CC1(C)O[C@@H]2C[C@H]3[C@@H]4C[C@H](F)C5=CC(=O)C=C[C@]5(C)[C@H]4[C@@H](O)C[C@]3(C)[C@]2(C(=O)CO)O1 [FLUNISOLIDE] | Not Active | Not Active | Not Active | Not Active | Not Active | Not Active | Not Active | Not Active | Not Active | Not Active |  |  |  | 
CC1(C)O[C@@H]2C[C@H]3[C@@H]4C[C@H](F)C5=CC(=O)C=C[C@]5(C)[C@@]4(F)[C@@H](O)C[C@]3(C)[C@]2(C(=O)CO)O1 [FLUOCINOLONE ACETONIDE] | Not Active | Not Active | Not Active | Not Active | Not Active | Not Active | Not Active | Not Active | Not Active | Not Active |  |  |  | 
CC1(C)O[C@@H]2C[C@H]3[C@@H]4C[C@H](F)C5=CC(=O)CC[C@]5(C)[C@H]4[C@@H](O)C[C@]3(C)[C@]2(C(=O)CO)O1 [FLURANDRENOLIDE] | Not Active | Not Active | Not Active | Not Active | Not Active | Not Active | Not Active | Not Active | Not Active | Not Active |  |  |  | 
Cc1ccc(S(=O)(=O)NC(=O)NN2CC3CCCC3C2)cc1 (configuration not stated) [GLICLAZIDE] | Not Active | Not Active | Not Active | Not Active | Not Active | Not Active | Not Active | Not Active | Not Active | Not Active |  |  |  | 
CC(C)Cc1ccc(C(C)C(=O)O)cc1 (configuration not stated) [IBUPROFEN] | Not Active | Not Active | Not Active | Not Active | Not Active | Not Active | Not Active | Not Active | Not Active | Not Active |  |  |  | 
COc1ccc2c(c1)c(CC(=O)O)c(C)n2C(=O)c1ccc(Cl)cc1 [INDOMETHACIN] | Not Active | Not Active | Not Active | Not Active | Not Active | Not Active | Not Active | Not Active | Not Active | Not Active |  |  |  | 
CCc1c2c(nc3ccc(OC(=O)N4CCC(N5CCCCC5)CC4)cc13)-c1cc3c(c(=O)n1C2)COC(=O)[C@]3(O)CC [IRINOTECAN] | Not Active | Not Active | Not Active | Not Active | Not Active | Not Active | Not Active | Not Active | Not Active | Not Active |  |  |  | 
CC(C(=O)O)c1cccc(C(=O)c2ccccc2)c1 (configuration not stated) [KETOPROFEN] | Not Active | Not Active | Not Active | Not Active | Not Active | Not Active | Not Active | Not Active | Not Active | Not Active |  |  |  | 
Nc1ccn([C@@H]2CS[C@H](CO)O2)c(=O)n1 [LAMIVUDINE] | Not Active | Not Active | Not Active | Not Active | Not Active | Not Active | Not Active | Not Active | Not Active | Not Active |  |  |  | 
O=S(=O)([O-])CCS.[Na+] [MESNA] | Not Active | Not Active | Not Active | Not Active | Not Active | Not Active | Not Active | Not Active | Not Active | Not Active |  |  |  | 
C#C[C@]1(O)CC[C@H]2[C@@H]3CCc4cc(OC)ccc4[C@H]3CC[C@@]21C [MESTRANOL] | Not Active | Not Active | Not Active | Not Active | Not Active | Not Active | Not Active | Not Active | Not Active | Not Active |  |  |  | 
CC(=O)Nc1cccc(O)c1 [METACETAMOL] | Not Active | Not Active | Not Active | Not Active | Not Active | Not Active | Not Active | Not Active | Not Active | Not Active |  |  |  | 
Cc1ncc([N+](=O)[O-])n1CCO [METRONIDAZOLE] | Not Active | Not Active | Not Active | Not Active | Not Active | Not Active | Not Active | Not Active | Not Active | Not Active |  |  |  | 
Oc1ccc(OCc2ccccc2)cc1 [MONOBENZONE] |  | Not Active | Not Active | Not Active | Not Active | Not Active | Not Active | Not Active | Not Active | Not Active | 4.89 |  |  | 
CC(C)(Oc1ccc(C2CCCc3ccccc32)cc1)C(=O)O (configuration not stated) [NAFENOPIN] | Not Active | Not Active | Not Active | Not Active | Not Active | Not Active | Not Active |  | Not Active | Not Active |  |  |  | 3.74
CC(C)[C@H]1CC[C@H](C(=O)N[C@H](Cc2ccccc2)C(=O)O)CC1 [NATEGLINIDE] | Not Active | Not Active | Not Active | Not Active | Not Active | Not Active | Not Active | Not Active | Not Active | Not Active |  |  |  | 
CCN[C@@H]1C[C@H](N)[C@@H](O[C@H]2OC(CN)=CC[C@H]2N)[C@H](O)[C@H]1O[C@H]1OC[C@](C)(O)[C@H](NC)[C@H]1O [NETILMICIN] | Not Active | Not Active | Not Active | Not Active | Not Active | Not Active | Not Active | Not Active | Not Active | Not Active |  |  |  | 
